# Measured values as given in PubChem BioAssay AID1963974 (Molecular Pharmacology Branch, DTP, NCI, 2024).
# Test system: 648629-189-R-J1-PDC spheroids with HUVEC/MSC, viability
# Experiment: Anticancer human tumor 648629-189-R-J1-PDC patient-derived bladder carcinoma cell line growth inhibition [PI3K]
# Details: for IC50: curve of first compound; for viability, T/C: stronger effect = lower value
# Summary of the method: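 Combination activity was assessed by viability in multicellular tumor spheroids carrying HUVEC and MSC components. Agents were tested with PI3K inhibitors from a Cmax-based top dose (or 10 microM) downward in half-log increments.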
# [1] = second compound 0.0316 µM, first compound 0.000316 µM
# [2] = second compound 0.0316 µM, first compound 0.001 µM
# [3] = second compound 0.0316 µM, first compound 0.00316 µM
# [4] = second compound 0.0316 µM, first compound 0.01 µM
# [5] = second compound 0.0316 µM, first compound 0.0316 µM
# [6] = second compound 0.0316 µM, first compound 0.1 µM
# [7] = second compound 0.1 µM, first compound 0.000316 µM
# [8] = second compound 0.1 µM, first compound 0.001 µM
# [9] = second compound 0.1 µM, first compound 0.00316 µM
# [10] = second compound 0.1 µM, first compound 0.01 µM
# [11] = second compound 0.1 µM, first compound 0.0316 µM
# [12] = second compound 0.1 µM, first compound 0.1 µM
# [13] = second compound 0.316 µM, first compound 0.000316 µM
# [14] = second compound 0.316 µM, first compound 0.001 µM
# [15] = second compound 0.316 µM, first compound 0.00316 µM
# [16] = second compound 0.316 µM, first compound 0.01 µM
# [17] = second compound 0.316 µM, first compound 0.0316 µM
# [18] = second compound 0.316 µM, first compound 0.1 µM
# [19] = second compound 1 µM, first compound 0.000316 µM
# [20] = second compound 1 µM, first compound 0.001 µM
# [21] = second compound 1 µM, first compound 0.00316 µM
# [22] = second compound 1 µM, first compound 0.01 µM
# [23] = second compound 1 µM, first compound 0.0316 µM
# [24] = second compound 1 µM, first compound 0.1 µM
# [25] = second compound 3.16 µM, first compound 0.000316 µM
# [26] = second compound 3.16 µM, first compound 0.001 µM
# [27] = second compound 3.16 µM, first compound 0.00316 µM
# [28] = second compound 3.16 µM, first compound 0.01 µM
# [29] = second compound 3.16 µM, first compound 0.0316 µM
# [30] = second compound 3.16 µM, first compound 0.1 µM
# [31] = second compound 10 µM, first compound 0.000316 µM
# [32] = second compound 10 µM, first compound 0.001 µM
# [33] = second compound 10 µM, first compound 0.00316 µM
# [34] = second compound 10 µM, first compound 0.01 µM
# [35] = second compound 10 µM, first compound 0.0316 µM
# [36] = second compound 10 µM, first compound 0.1 µM
# 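Further: spheroids exposed to agents for seven days before reading.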
# 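Wherever viability, T/C is given: percent of vehicle control luminescence where 100% = DMSO treated spheroids.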
smiles,measurement,setting,value
CC(=O)c1c(C)c2cnc(Nc3ccc(N4CCNCC4)cn3)nc2n(C2CCCC2)c1=O + CC(Nc1ncnc2nc[nH]c12)c1cc2cccc(Cl)c2c(=O)n1-c1ccccc1,IC50,second compound 0.0316 µM,> 100 nM
same,IC50,second compound 0.1 µM,> 100 nM
same,IC50,second compound 0.316 µM,> 100 nM
same,IC50,second compound 1 µM,> 100 nM
same,IC50,second compound 3.16 µM,> 100 nM
same,IC50,second compound 10 µM,> 100 nM
same,"viability, T/C",[1],102%
same,"viability, T/C",[2],104%
same,"viability, T/C",[3],101%
same,"viability, T/C",[4],92.1%
same,"viability, T/C",[5],111%
same,"viability, T/C",[6],102%
same,"viability, T/C",[7],102%
same,"viability, T/C",[8],99.2%
same,"viability, T/C",[9],98.5%
same,"viability, T/C",[10],90.9%
same,"viability, T/C",[11],117%
same,"viability, T/C",[12],116%
same,"viability, T/C",[13],93.1%
same,"viability, T/C",[14],103%
same,"viability, T/C",[15],107%
same,"viability, T/C",[16],107%
same,"viability, T/C",[17],111%
same,"viability, T/C",[18],97.9%
same,"viability, T/C",[19],100%
same,"viability, T/C",[20],97.4%
same,"viability, T/C",[21],109%
same,"viability, T/C",[22],102%
same,"viability, T/C",[23],112%
same,"viability, T/C",[24],98.9%
same,"viability, T/C",[25],90.8%
same,"viability, T/C",[26],108%
same,"viability, T/C",[27],91.9%
same,"viability, T/C",[28],113%
same,"viability, T/C",[29],101%
same,"viability, T/C",[30],107%
same,"viability, T/C",[31],90.3%
same,"viability, T/C",[32],92.2%
same,"viability, T/C",[33],95.3%
same,"viability, T/C",[34],88.7%
same,"viability, T/C",[35],89.3%
same,"viability, T/C",[36],94.3%
CC(C)n1nc(-c2ccc3oc(N)nc3c2)c2c(N)ncnc21 + CC(Nc1ncnc2nc[nH]c12)c1cc2cccc(Cl)c2c(=O)n1-c1ccccc1,IC50,second compound 0.0316 µM,73 nM
same,IC50,second compound 0.1 µM,63.8 nM
same,IC50,second compound 0.316 µM,62.6 nM
same,IC50,second compound 1 µM,61.5 nM
same,IC50,second compound 3.16 µM,55.8 nM
same,IC50,second compound 10 µM,32.1 nM
same,"viability, T/C",[1],93.2%
same,"viability, T/C",[2],96.1%
same,"viability, T/C",[3],87.9%
same,"viability, T/C",[4],85.4%
same,"viability, T/C",[5],85.8%
same,"viability, T/C",[6],36.5%
same,"viability, T/C",[7],101%
same,"viability, T/C",[8],86.5%
same,"viability, T/C",[9],101%
same,"viability, T/C",[10],97.7%
same,"viability, T/C",[11],69.5%
same,"viability, T/C",[12],37.5%
same,"viability, T/C",[13],99.5%
same,"viability, T/C",[14],107%
same,"viability, T/C",[15],104%
same,"viability, T/C",[16],85.8%
same,"viability, T/C",[17],73.8%
same,"viability, T/C",[18],34.7%
same,"viability, T/C",[19],104%
same,"viability, T/C",[20],89.6%
same,"viability, T/C",[21],101%
same,"viability, T/C",[22],85.6%
same,"viability, T/C",[23],68.8%
same,"viability, T/C",[24],36.5%
same,"viability, T/C",[25],85.8%
same,"viability, T/C",[26],103%
same,"viability, T/C",[27],91.4%
same,"viability, T/C",[28],84.6%
same,"viability, T/C",[29],66.1%
same,"viability, T/C",[30],33.8%
same,"viability, T/C",[31],83.1%
same,"viability, T/C",[32],87.1%
same,"viability, T/C",[33],81.4%
same,"viability, T/C",[34],72.3%
same,"viability, T/C",[35],50.4%
same,"viability, T/C",[36],30.3%
